The values that follow come from publication PMC5533769, “A cell-based high-throughput screening assay system for inhibitor compounds of antigen presentation by HLA class II molecule” (Scientific Reports, 2017).

One data set deals with T1, DR15 (DRB1*15:01) (Homo sapiens, UniProt P01903+P01911, OTHER:DRA*01:01ANDEACHDRB1VECTORSWEREINTRODUCEDINTOTHECELLSAT1:1RATIO/OTHER:MBP83-99TODR15(DRB1*15:01)).
T1 construct: The open reading frame for DRA or DRB1 were flanked with Xho 1 and EcoR1 sites; expressed in transfected cells
In words: 96-well competition assay: inhibition of MBP83-99 loading to DR15-expressing 3T3 cells. The data set is classed as binding.

In a further data set the target is T2, DR1 (DRB1*01:01) (Homo sapiens, UniProt P01903+P01911, A100R/D57E/F55L/F60I/F76Y/I96L/L162R/M171V/P40L/Q125E/R42F/V115G/Y59C).
T2 construct: The open reading frame for DRA or DRB1 were flanked with Xho 1 and EcoR1 sites; expressed in transfected cells
In words: 96-well competition assay: inhibition of MBP83-99 loading to DR1-expressing 3T3 cells. The format is binding.

Data set [1] concerns DR15-expressing 3T3 cells. The conditions noted are these: crystal violet (A550); 1 h with CLIP, then MBP83-99 6 h.
The target in data set [2] is HLA-DR15 (DRA*01:01/DRB1*15:01) (Homo sapiens, UniProt P01903+P01911). Kind of data set: FACS binding of biotinylated peptide to HLA-DR15 on HEK293T cells. The conditions noted are these: SA-PE, HEK293T transiently expressing DRA*01:01 + DRB1*15:01, biotinylated peptide 30 µM, 5 h (>5 h), 3 to 6 independent experiments. Background: A flow cytometer gives signals particle by particle.

Data set [3] has as its target T3, HLA-DR1 (DRA*01:01/DRB1*01:01) (Homo sapiens, UniProt P01903+P01911, A100R/D57E/F55L/F60I/F76Y/I96L/L162R/M171V/P40L/Q125E/R42F/V115G/Y59C). In words: FACS binding of biotinylated peptide to HLA-DR1 on HEK293T cells. The conditions noted are these: SA-PE, biotinylated peptide 30 µM, >5 h, 3 to 6 independent experiments.
Data set [4] deals with HLA-DR (DRB1*01:01, DRB1*04:05, DRB1*09:01, DRB1*15:01). Kind of data set: FACS binding of biotinylated peptide to panel of HLA-DR on HEK293T cells. More on the design: species or system human.
The target of data set [5] is T3, HLA-DR1 (DRA*01:01/DRB1*01:01). Kind of data set: FACS binding of biotinylated peptide to HLA-DR1 on stable 3T3 cells. The conditions noted are these: SA-PE, stable 3T3, DRA*01:01 + DRB1*01:01, biotinylated peptide 30 µM overnight.
Data set [6] concerns HLA-DR (DRB1*01:01, DRB1*04:05, DRB1*09:01, DRB1*15:01). Kind of data set: FACS binding of biotinylated peptide to panel of HLA-DR on stable 3T3 cells. Conditions: SA-PE, […], biotinylated peptide 30 µM overnight. More on the design: species or system human.
The test system of data set [7] is DR1 (DRB1*01:01) and DR4 (DRB1*04:01). Conditions: HLA-DRB1*01:01 and DRB1*04:01; ref [4], [5]; cited from earlier work. The source says:
An array of autoimmune diseases, including rheumatoid arthritis (RA) and multiple sclerosis (MS), are associated with particular alleles of HLA-DRB1[1], [3]. […] On ...

For orientation: IC50 means the point on the concentration scale where inhibition reaches its midpoint. Read a low IC50 as greater potency in that assay. What is called Kd is the equilibrium constant for the complex coming apart. Higher therefore signals lower affinity. On DR15 (DRB1*15:01), `CSCC[C@H](NC(=O)[C@H](CCCNC(=N)N)NC(=O)[C@H](CCSC)NC(=O)[C@H](CCCCN)NC(=O)[C@H](CO)NC(=O)[C@@H](NC(=O)[C@@H]1CCCN1C(=O)[C@@H](N)CCCCN)C(C)C)C(=O)N[C@@H](C)C(=O)N[C@H](C(=O)N1CCC[C@H]1C(=O)N[C@@H](CC(C)C)C(=O)N[C@@H](CC(C)C)C(=O)N[C@@H](CCSC)C(=O)N[C@@H](CCC(N)=O)C(=O)N[C@@H](C)C(=O)N[C@@H](CC(C)C)C(=O)O)[C@@H](C)O` [CLIP102-118, Class II-associated invariant chain peptide (CLIP) 102–118] displayed an IC50 of 9 µM and a Kd of 3 µM. On DR1 (DRB1*01:01), the IC50 was 8 µM and the Kd stood at 5 µM. Also, in data set [1], the “Cell number after binding assay (cytotoxicity), DR15 cells” value was “no difference in the cell number”. Also, the “Cell number after binding assay (cytotoxicity), DR1 cells” value in the data set with DR1-expressing 3T3 cells is recorded as “no difference in the cell number”.

For the compound “GIAGFKGEQGPKGEP [CII263-272, type II collagen (CII) 263–272, biotinylated type II collagen peptide]”, in data set [2], the “Peptide binding (MFI), HLA-DR15” value is given as “Significant binding”. Moreover, in data set [3], the “Peptide binding (MFI), HLA-DR1” value was “Significant binding”. In [4], the “Binding MFI compared with MBP83-99” value was “far less than that for MBP83-99 binding”. Moreover, the “Peptide binding, DR1 on 3T3” value in data set [5] was “very weakly”. For the same compound, the “Peptide binding across HLA-DR genotypes on 3T3” value in data set [6] was “not at all to other DR-expressing cells”. In [7], the “Presentation by DR1 and DR4” value is listed as “present peptide from type II collagen”.
